Measured values published in the supplement of paper PMC10307832.

Key:
Test in all cases: relative viability (nuclei count vs DMSO), 5 days (fraction); higher = more cells survive
[1] = test system: ChaGo-K-1
Summary of the method: (§1)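 For relative viability, nuclei counts in treated wells were divided by those in vehicle wells. Lung cancer cell lines had been pin-tool dosed in 1536-well plates the day after seeding and cultured for 5 days, then fixed and stained in one step (final 0.05% Triton X-100, 1% formaldehyde, 1 ug/ml Hoechst) and imaged at 4×. Doses were one drug alone or a fixed anchor-drug dose plus five library-drug doses (not always all listed) in √10 steps, and values are duplicate-plate medians.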

[2] = test system: EKVX
Summary of the method: as §1

[3] = test system: EMC-BAC-2
Summary of the method: as §1

[4] = test system: EPLC-272H
Summary of the method: as §1

[5] = test system: HCC-78
Summary of the method: as §1

[6] = test system: HCC-827
Summary of the method: as §1

[7] = test system: LCLC-103H
Summary of the method: as §1

[8] = test system: LK-2
Summary of the method: as §1

[9] = test system: LU99A
Summary of the method: as §1

[10] = test system: NCI-H1563
Summary of the method: as §1

[11] = test system: NCI-H1666
Summary of the method: as §1

[12] = test system: NCI-H1975
Summary of the method: as §1

[13] = test system: NCI-H2126
Summary of the method: as §1

[14] = test system: NCI-H23
Summary of the method: as §1

[15] = test system: NCI-H2405
Summary of the method: as §1

[16] = test system: NCI-H322M
Summary of the method: as §1

[17] = test system: PC-14
Summary of the method: as §1

[18] = test system: RERF-LC-KJ
Summary of the method: as §1

[19] = test system: SK-LU-1
Summary of the method: as §1

[20] = test system: SW 1573
Summary of the method: as §1

Question: With `Cc1sc2c(c1C)C(c1ccc(Cl)cc1)=N[C@@H](CC(=O)OC(C)(C)C)c1nnc(C)n1-2` [JQ1] + CS(=O)(=O)N1CCN(Cc2cc3nc(-c4cccc5[nH]ncc45)nc(N4CCOCC4)c3s2)CC1 [Pictilisib] (partner 1 µM) as the compound, how does the relative viability ([1]; first compound 0.04 µM) read?
Answer: 0.752

Question: And the relative viability ([1]; first compound 0.4 µM)?
Answer: 0.658

Question: And the relative viability ([1]; first compound 1.265 µM)?
Answer: 0.407

Question: What about the relative viability ([1]; first compound 4 µM) of the same compound?
Answer: 0.43

Question: And the relative viability ([2]; first compound 0.04 µM)?
Answer: 0.442

Question: And the relative viability ([2]; first compound 0.1265 µM)?
Answer: 0.464

Question: What about the relative viability ([2]; first compound 0.4 µM) of the same compound?
Answer: 0.459

Question: What about the relative viability ([2]; first compound 1.265 µM) of the same compound?
Answer: 0.359

Question: And the relative viability ([2]; first compound 4 µM)?
Answer: 0.335

Question: And the relative viability ([3]; first compound 0.04 µM)?
Answer: 0.551

Question: And the relative viability ([3]; first compound 0.1265 µM)?
Answer: 0.499

Question: What about the relative viability ([3]; first compound 0.4 µM) of the same compound?
Answer: 0.565

Question: And the relative viability ([3]; first compound 1.265 µM)?
Answer: 0.27

Question: And the relative viability ([3]; first compound 4 µM)?
Answer: 0.26

Question: And the relative viability ([4]; first compound 0.04 µM)?
Answer: 0.298

Question: And the relative viability ([4]; first compound 0.1265 µM)?
Answer: 0.326

Question: And the relative viability ([4]; first compound 0.4 µM)?
Answer: 0.301

Question: What about the relative viability ([4]; first compound 1.265 µM) of the same compound?
Answer: 0.223

Question: And the relative viability ([4]; first compound 4 µM)?
Answer: 0.184

Question: And the relative viability ([5]; first compound 0.04 µM)?
Answer: 0.212

Question: And the relative viability ([5]; first compound 0.1265 µM)?
Answer: 0.313

Question: And the relative viability ([5]; first compound 0.4 µM)?
Answer: 0.185

Question: And the relative viability ([5]; first compound 1.265 µM)?
Answer: 0.214

Question: And the relative viability ([5]; first compound 4 µM)?
Answer: 0.192

Question: And the relative viability ([6]; first compound 0.04 µM)?
Answer: 1.06

Question: What about the relative viability ([6]; first compound 0.4 µM) of the same compound?
Answer: 0.544

Question: What about the relative viability ([6]; first compound 1.265 µM) of the same compound?
Answer: 0.911

Question: What about the relative viability ([6]; first compound 4 µM) of the same compound?
Answer: 0.752

Question: And the relative viability ([7]; first compound 0.04 µM)?
Answer: 0.571

Question: And the relative viability ([7]; first compound 0.1265 µM)?
Answer: 0.522

Question: What about the relative viability ([7]; first compound 0.4 µM) of the same compound?
Answer: 0.537

Question: And the relative viability ([7]; first compound 1.265 µM)?
Answer: 0.4

Question: What about the relative viability ([7]; first compound 4 µM) of the same compound?
Answer: 0.352

Question: What about the relative viability ([8]; first compound 0.04 µM) of the same compound?
Answer: 0.514

Question: What about the relative viability ([8]; first compound 0.1265 µM) of the same compound?
Answer: 0.511

Question: What about the relative viability ([8]; first compound 0.4 µM) of the same compound?
Answer: 0.35

Question: What about the relative viability ([8]; first compound 1.265 µM) of the same compound?
Answer: 0.223

Question: What about the relative viability ([8]; first compound 4 µM) of the same compound?
Answer: 0.226

Question: And the relative viability ([9]; first compound 0.04 µM)?
Answer: 0.322

Question: And the relative viability ([9]; first compound 0.1265 µM)?
Answer: 0.32

Question: And the relative viability ([9]; first compound 0.4 µM)?
Answer: 0.398

Question: And the relative viability ([9]; first compound 1.265 µM)?
Answer: 0.201

Question: What about the relative viability ([9]; first compound 4 µM) of the same compound?
Answer: 0.203

Question: And the relative viability ([10]; first compound 0.04 µM)?
Answer: 0.606

Question: And the relative viability ([10]; first compound 0.1265 µM)?
Answer: 0.645

Question: And the relative viability ([10]; first compound 0.4 µM)?
Answer: 0.611

Question: And the relative viability ([10]; first compound 1.265 µM)?
Answer: 0.622

Question: What about the relative viability ([10]; first compound 4 µM) of the same compound?
Answer: 0.638

Question: What about the relative viability ([11]; first compound 0.04 µM) of the same compound?
Answer: 0.314

Question: And the relative viability ([11]; first compound 0.1265 µM)?
Answer: 0.526

Question: What about the relative viability ([11]; first compound 0.4 µM) of the same compound?
Answer: 0.414

Question: What about the relative viability ([11]; first compound 1.265 µM) of the same compound?
Answer: 0.274

Question: What about the relative viability ([11]; first compound 4 µM) of the same compound?
Answer: 0.288

Question: What about the relative viability ([12]; first compound 0.04 µM) of the same compound?
Answer: 0.298

Question: What about the relative viability ([12]; first compound 0.1265 µM) of the same compound?
Answer: 0.246

Question: What about the relative viability ([12]; first compound 0.4 µM) of the same compound?
Answer: 0.27

Question: And the relative viability ([12]; first compound 1.265 µM)?
Answer: 0.214

Question: And the relative viability ([12]; first compound 4 µM)?
Answer: 0.204

Question: And the relative viability ([13]; first compound 0.04 µM)?
Answer: 0.484

Question: And the relative viability ([13]; first compound 0.1265 µM)?
Answer: 0.473

Question: And the relative viability ([13]; first compound 0.4 µM)?
Answer: 0.435

Question: And the relative viability ([13]; first compound 1.265 µM)?
Answer: 0.37

Question: What about the relative viability ([13]; first compound 4 µM) of the same compound?
Answer: 0.349

Question: And the relative viability ([14]; first compound 0.04 µM)?
Answer: 0.46

Question: What about the relative viability ([14]; first compound 0.1265 µM) of the same compound?
Answer: 0.453

Question: What about the relative viability ([14]; first compound 0.4 µM) of the same compound?
Answer: 0.447

Question: And the relative viability ([14]; first compound 1.265 µM)?
Answer: 0.162

Question: And the relative viability ([14]; first compound 4 µM)?
Answer: 0.183

Question: What about the relative viability ([15]; first compound 0.04 µM) of the same compound?
Answer: 0.536

Question: And the relative viability ([15]; first compound 0.4 µM)?
Answer: 0.405

Question: And the relative viability ([15]; first compound 1.265 µM)?
Answer: 0.263

Question: And the relative viability ([15]; first compound 4 µM)?
Answer: 0.221

Question: What about the relative viability ([16]; first compound 0.04 µM) of the same compound?
Answer: 0.478

Question: And the relative viability ([16]; first compound 0.1265 µM)?
Answer: 0.559

Question: What about the relative viability ([16]; first compound 0.4 µM) of the same compound?
Answer: 0.439

Question: What about the relative viability ([16]; first compound 1.265 µM) of the same compound?
Answer: 0.398

Question: What about the relative viability ([16]; first compound 4 µM) of the same compound?
Answer: 0.358

Question: What about the relative viability ([17]; first compound 0.04 µM) of the same compound?
Answer: 0.631

Question: What about the relative viability ([17]; first compound 0.1265 µM) of the same compound?
Answer: 0.498

Question: And the relative viability ([17]; first compound 0.4 µM)?
Answer: 0.445

Question: And the relative viability ([17]; first compound 1.265 µM)?
Answer: 0.243

Question: And the relative viability ([17]; first compound 4 µM)?
Answer: 0.122

Question: And the relative viability ([18]; first compound 0.04 µM)?
Answer: 0.579

Question: And the relative viability ([18]; first compound 0.1265 µM)?
Answer: 0.661

Question: And the relative viability ([18]; first compound 0.4 µM)?
Answer: 0.595

Question: And the relative viability ([18]; first compound 1.265 µM)?
Answer: 0.304

Question: And the relative viability ([18]; first compound 4 µM)?
Answer: 0.337

Question: What about the relative viability ([19]; first compound 0.04 µM) of the same compound?
Answer: 0.581

Question: And the relative viability ([19]; first compound 0.1265 µM)?
Answer: 0.438

Question: And the relative viability ([19]; first compound 0.4 µM)?
Answer: 0.456

Question: What about the relative viability ([19]; first compound 1.265 µM) of the same compound?
Answer: 0.256

Question: And the relative viability ([19]; first compound 4 µM)?
Answer: 0.171

Question: And the relative viability ([20]; first compound 0.04 µM)?
Answer: 0.486

Question: And the relative viability ([20]; first compound 0.1265 µM)?
Answer: 0.443

Question: What about the relative viability ([20]; first compound 0.4 µM) of the same compound?
Answer: 0.421

Question: What about the relative viability ([20]; first compound 1.265 µM) of the same compound?
Answer: 0.212

Question: What about the relative viability ([20]; first compound 4 µM) of the same compound?
Answer: 0.221
